Assay [1] has as its target Delta-type opioid receptor (Rattus norvegicus, UniProt P33533). Description: Compound was tested for its ability to displace [3H]DADLE from delta receptor in rat brain. The format is tissue-based.
For assay [2], the target named is Kappa-type opioid receptor (Cavia porcellus, UniProt P41144). The assay can be described thus: Compound was tested for its ability to displace [3H]U-69593 from kappa receptor in guinea pig brain.
For assay [3], the target named is Mu-type opioid receptor (Rattus norvegicus, UniProt P33535). Description: Compound was tested for its ability to displace [3H]DAMGO from mu receptor in rat brain. The format is tissue-based.
Sequence of Mu-type opioid receptor (P33535 whole entry): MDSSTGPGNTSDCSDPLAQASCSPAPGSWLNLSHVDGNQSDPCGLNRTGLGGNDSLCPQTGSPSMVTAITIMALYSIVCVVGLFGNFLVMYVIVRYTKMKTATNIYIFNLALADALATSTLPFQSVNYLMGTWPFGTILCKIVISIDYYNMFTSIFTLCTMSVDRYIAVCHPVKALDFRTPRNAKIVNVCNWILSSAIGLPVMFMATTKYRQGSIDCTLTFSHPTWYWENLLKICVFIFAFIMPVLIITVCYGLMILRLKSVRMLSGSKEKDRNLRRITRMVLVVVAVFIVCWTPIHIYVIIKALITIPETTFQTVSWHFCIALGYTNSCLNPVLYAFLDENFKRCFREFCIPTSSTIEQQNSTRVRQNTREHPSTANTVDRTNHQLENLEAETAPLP

Where only a bound is given, the exact number is not on record here.

Sequence of Delta-type opioid receptor (P33533 whole entry): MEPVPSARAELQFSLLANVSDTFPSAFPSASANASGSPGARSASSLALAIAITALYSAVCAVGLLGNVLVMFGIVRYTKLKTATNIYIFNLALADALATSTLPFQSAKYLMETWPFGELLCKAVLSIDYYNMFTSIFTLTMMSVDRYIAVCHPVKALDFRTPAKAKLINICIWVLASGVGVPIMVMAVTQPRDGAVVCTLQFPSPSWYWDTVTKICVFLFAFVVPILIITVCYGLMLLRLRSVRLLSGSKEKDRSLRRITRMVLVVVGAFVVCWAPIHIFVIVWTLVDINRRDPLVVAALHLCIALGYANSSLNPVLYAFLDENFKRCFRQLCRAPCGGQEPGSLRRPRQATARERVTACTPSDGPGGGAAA
Sequence of Kappa-type opioid receptor (P41144 whole entry): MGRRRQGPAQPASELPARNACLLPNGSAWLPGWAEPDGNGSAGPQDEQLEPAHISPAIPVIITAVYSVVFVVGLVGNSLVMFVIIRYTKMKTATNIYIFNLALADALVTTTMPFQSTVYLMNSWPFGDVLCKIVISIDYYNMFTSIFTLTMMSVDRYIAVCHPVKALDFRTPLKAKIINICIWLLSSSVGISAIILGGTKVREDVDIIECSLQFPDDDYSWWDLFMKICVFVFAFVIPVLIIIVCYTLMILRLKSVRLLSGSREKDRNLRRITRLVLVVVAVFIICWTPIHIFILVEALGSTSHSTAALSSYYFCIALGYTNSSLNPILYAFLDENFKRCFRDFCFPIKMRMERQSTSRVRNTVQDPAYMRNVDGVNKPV

In general, Ki refers to the equilibrium dissociation constant of an inhibitor or competing ligand from its target. As to `Oc1ccc2c3c1O[C@H]1c4[nH]c5ccccc5c4C[C@@]4(O)[C@@H](C2)N(CC2CC2)CC[C@]314` [NALTRINDOLE], the inhibitory constant (Ki) in assay [1] is 0.000217 µM; in assay [2], 0.0304 µM.
For `O[C@@]12Cc3c([nH]c4ccccc34)[C@H]3Oc4cccc5c4[C@@]31CCN(CC1CC1)[C@@H]2C5`, the Ki in assay [1] was 0.035 µM; in assay [2], 10.9 µM; in assay [3], greater than 5.68 µM.
The corresponding values for `Oc1cccc(-c2ccc3c4c2O[C@H]2c5[nH]c6ccccc6c5C[C@@]5(O)[C@@H](C3)N(CC3CC3)CC[C@]425)c1` are 1.61 µM, greater than 6.8 µM and greater than 5.68 µM.
For the molecule `Cc1ccc2c3c1O[C@H]1c4[nH]c5ccccc5c4C[C@@]4(O)[C@@H](C2)N(CC2CC2)CC[C@]314`, the Ki in assay [1] was 0.071 µM; in assay [2], greater than 6.8 µM; in assay [3] it was greater than 5.68 µM.
Taken in the same sequence, the figures for `O[C@@]12Cc3c([nH]c4ccccc34)[C@@H]3Oc4c(-c5ccco5)ccc5c4[C@@]31CCN(CC1CC1)[C@@H]2C5` were 0.959 µM, greater than 6.8 µM and greater than 5.68 µM.
Taken in the same sequence, the figures for `O[C@@]12Cc3c([nH]c4ccccc34)[C@@H]3Oc4c(-c5ccccc5)ccc5c4[C@@]31CCN(CC1CC1)[C@@H]2C5` were 10.6 µM, greater than 6.8 µM and greater than 5.68 µM.
Consider `COc1cccc(-c2ccc3c4c2O[C@H]2c5[nH]c6ccccc6c5C[C@@]5(O)[C@@H](C3)N(CC3CC3)CC[C@]425)c1`, for which the Ki in assay [1] is greater than 6.67 µM; in assay [2] it was greater than 6.8 µM; in assay [3], greater than 5.68 µM.
The corresponding values for `C=Cc1ccc2c3c1O[C@H]1c4[nH]c5ccccc5c4C[C@@]4(O)[C@@H](C2)N(CC2CC2)CC[C@]314` are 0.061 µM, 17.6 µM and greater than 5.68 µM.

The values are drawn from ChEMBL document CHEMBL1130776, “Synthesis and biological activity of 3-substituted 3-desoxynaltrindole derivatives” (Bioorg Med Chem Lett, 1998).
